Measurements from patent US20090156687A1, “Fab I and inhibition of apicomplexan parasites” (priority 2003, published 2009).
≈ marks a conversion by molar mass, not a printed value. Read-outs that look alike come from different tables or passages of the source.

Legend:
[1] = system: P. falciparum; assay: microbe, parasite or virus in culture; format: cell-based, Plasmodium falciparum; settings: for IC50: Plasmodium falciparum
Method: Because Fab I was located, the effects of triclosan on Plasmodium falciparum in vitro were investigated. For P. falciparum, the in vitro assays (Milhous et al., 1985; Oduola et al., 1988) were conducted using a modification of the semiautomated microdilution technique for assessing anti-folate antagonists. Instead of dialysed human plasma, 10% Albumax I (Gibco BRL), a serum-free substitute, was used to supplement the RPMI 1640 medium. All test compounds were dissolved in DMSO and diluted 400-fold into complete medium before serial dilution over 11 concentrations. Incubation was at 37° C. in 5% O2, 5% CO2 and 90% N2 for 48 h. [3H]-Hypoxanthine incorporation was measured as described previously (Milhous et al, 1985; Oduola et al, 1988).
P. falciparum. The in vitro assays (Oduala et al., 1988; Milhous et al., 1985) were conducted using a modification of the semiautomated microdilution technique for assessing antifolate antagonists. Instead of dialysed human plasma, 10% Albumaz I (Gibco BRL), a serum-free substitute, was used to supplement the RPMI 16-40 media. All test compounds were dissolved in DMSO and diluted 400-fold into complete media before serial dilution over 11 concentrations. Incubation was at 37° C. in 5% O2, 5% CO2 and 90% N2 for 48h, [3H]-Hypoxanthine incorporation was measured as described previously (13, 14).

[2] = system: Cryptosporidia; format: cell-based
[3] = system: T. gondii; assay: T. gondii growth inhibition in human foreskin fibroblasts, 3H uracil uptake; format: cell-based, Toxoplasma gondii; settings: for percentage inhibition of T. gondii uracil uptake: 125 nanograms per ml
Method: For T. gondii, growth inhibition was assessed over a 4-day period as described previously (Mack et al., 1984; Roberts et al., 1998; Zuther et al., 1999) using human foreskin fibroblasts (HFF) infected with 105 tachyzoites of the RH strain of T. gondii. The assays are based on microscopic visual inspection of infected and inhibitor treated cultures, and on quantitation of nucleic acid synthesis of the parasite by measuring uptake of 3H uracil into the parasite's nucleic acid. Uracil is not utilized by mammalian cells. Parasites present as tachyzoites (RH, Ptg., a clone derived from the Me49 strain), bradyzoites (Me49), and R5 mutants (mixed tachyzoites/bradyzoites of the Me49 strain that can be stage switched by culture conditions) (Bohne et al., 1993; Soete et al., 1994; Tomovo and Boothroyd, 1995; Weiss et al., 1992) are suitable for assay systems used to study effectsof inhibitors. Only the RH strain tachyzoites, cultured for up to 72 hours, had been used in previously reported assays. The use of Me49, Ptg, and R5 mutants are unique aspects of the methods used in these assays in this invention.
(§1) In these assays toxicity of a candidate inhibitor was assessed by its ability to prevent growth of human foreskin fibroblasts (HFF) after 4 days and after 8 days as measured by tritiated thymidine uptake and microscopic evaluation. Confluent monolayers of HFF were infected with tachyzoites and bradyzoites. Inhibitor was added one hour later. Non-toxic doses were used in parasite growth inhibition assays. Parasite growth was measured by ability to incorporate tritiated uracil during the last 48 hours of culture.
T. gondii in vitro. Growth inhibition was assessed over a 4-day period as described previously by Roberts et al., 1998; Zuther et al., 1999; and Mack et al., 1984, all incorporated by reference, using human foreskin fibroblasts (HFF) infected with 105 tachyzoites of the RH strain of T. gondii. Uptake of 3H uracil was determined. Evaluation of slides of preparations containing HFF, Toxoplasma and inhibitors were made.

[4] = system: EPSP synthase; assay: EPSP synthase enzyme activity; format: biochemical, T. gondii; settings: 1 mM
[5] = system: human foreskin fibroblasts (HFF); assay: Toxicity to host cells, tritiated thymidine uptake and microscopic evaluation; format: cell-based; settings: at concentrations effective against T. gondii
Method: as §1

[6] = target: P. falciparum FAB I (Plasmodium falciparum, UniProt Q9BH77); assay: Fab I enzyme activity (NADH dependent); format: biochemical; settings: purified P. falciparum FAB I
Chain of P. falciparum FAB I (Q9BH77 entry or part of it): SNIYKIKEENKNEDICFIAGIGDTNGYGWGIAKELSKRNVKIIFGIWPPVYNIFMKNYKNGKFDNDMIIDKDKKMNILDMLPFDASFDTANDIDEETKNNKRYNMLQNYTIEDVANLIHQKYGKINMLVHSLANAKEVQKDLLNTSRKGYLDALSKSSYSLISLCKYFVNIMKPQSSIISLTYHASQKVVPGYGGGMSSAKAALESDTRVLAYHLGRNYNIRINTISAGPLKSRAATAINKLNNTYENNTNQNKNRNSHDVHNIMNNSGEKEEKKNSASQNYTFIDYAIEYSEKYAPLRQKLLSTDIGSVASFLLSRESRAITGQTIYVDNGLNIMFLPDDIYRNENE

[7] = system: P. berghei; assay: P. berghei murine model; format: in vivo; settings: subcutaneously, 3 or 38 mg/kg
[8] = system: P. falciparum; assay: In vitro synergy with cerulein; set-up: species or system Plasmodium falciparum; settings: cerulein (inhibitor of Fab F, B, H) with triclosan
[9] = system: T. gondii; settings: literature (Waller et al., 1998; Zuther et al., 1999); cited from earlier work
[10] = 48 h, read-out: IC 50 when cultured with P Falciparum, strain TM91C234, 48 h
[11] = 48 h, read-out: IC 50 when cultured with P Falciparum, strain W2 (chloroquine and pyrimethamine resistant), 48 h
[12] = TM90C2A, 48 h, read-out: IC 50 when cultured with P Falciparum, strain TM90C2A (chloroquine and mefloquine resistant, admission isolate), 48 h
[13] = TM90C2B, 48 h, read-out: IC 50 when cultured with P Falciparum, strain TM90C2B (recrudescent isolate, atovaquone resistant), 48 h

OC(c1cc(C(F)(F)F)nc2c(C(F)(F)F)cccc12)C1CCCCN1 (stereo not shown) [Mefloquine]
IC50 ([1]; 48 h, read-out: IC 50 when cultured with P Falciparum): 0.0053 µg/mL (≈ 0.014 µM) | IC50 [1, 10]: 0.0196 µg/mL (≈ 0.0518 µM) | IC50 [1, 11]: 0.002 µg/mL (≈ 0.00529 µM) | IC50 [1, 12]: 0.0245 µg/mL (≈ 0.0648 µM) | IC50 [1, 13]: 0.0193 µg/mL (≈ 0.051 µM)

O=C(O)CC[N+](=O)[O-] [3NPA]
effect on Cryptosporidia [2]: inhibited

Oc1cccc2cccnc12 [8-OH-quinoline]
effect on Cryptosporidia [2]: inhibitory effects

O=C(O)CNCP(=O)(O)O [NPMG]
uptake of tritiated uracil by tachyzoites ([3]; RH strain): inhibited | in vitro growth of asexual erythrocytic forms ([1]; P. falciparum): inhibition | EPSP synthase enzyme activity [4]: inhibition | effect on Cryptosporidia [2]: inhibitory effects

Oc1cc(Cl)ccc1Oc1ccc(Cl)cc1Cl [Triclosan, 5-chloro-2-[2,4 dichloropheoxyl] phenol]
toxicity to host cells / host cells uptake of thymidine [5]: no toxicity | toxicity to host cells / host cells uptake of thymidine ([5]; listed as triclosan): no inhibitory effect | percentage inhibition of T. gondii uracil uptake ([3]; day 1, separate experiment): 20% | percentage inhibition of T. gondii uracil uptake ([3]; day 4, separate experiment): 72% | IC50, T. gondii uracil uptake ([3]; RH strain in HFF, 4 days after infection): 62 nanograms/ml | IC50 ([3]; Toxoplasma gondii, Fibroblast, 96 h, read-out: IC50, T. gondii uracil uptake): 0.062 µg/mL (≈ 0.214 µM) | IC50 ([1]; 48 h, strain TM91C234, 48 h, read-out: IC 50 when cultured with P Falciparum): 1.8 µg/mL (≈ 6.22 µM) | IC50 ([1]; TM90C2A, 48 h, read-out: IC 50 when cultured with P Falciparum): 1.89 µg/mL (≈ 6.53 µM) | IC50 ([1]; TM90C2B, 48 h, strain TM90C2B (recrudescent isolate, atovaquone resistant), 48 h, read-out: IC 50 when cultured with P Falciparum): 1.33 µg/mL (≈ 4.59 µM) | IC50 ([1]; W2, strain W2, text value, read-out: IC50 against pyrimethamine resistant P. falciparum (W2)): 0.15 µg/mL (≈ 0.518 µM) | IC50 ([1]; range over strains, read-out: IC50, growth and survival of P. falciparum): 0.15 to 2 µg/mL (≈ 0.518 to 6.91 µM) | FAB I enzyme activity [6]: inhibited | death [7]: prevented death | parasitemia [7]: cleared parasitemia | toxicity in P. berghei murine model [7]: nontoxic

C[C@@H](Oc1ccc(Oc2ncc(Cl)cc2F)cc1)C(=O)O [clodinafop]
inhibition of T. gondii ([3]; 1 micromolar): ionhibited

O=C(NO)c1ccccc1O [SHAM]
effect on Cryptosporidia [2]: inhibitory effects

NC1C=CC=C(C(=O)O)C1 (racemic) [gabaculine]
effect on Cryptosporidia [2]: inhibitory effects

C/C=C/C/C=C/CCC(=O)[C@H]1O[C@H]1C(N)=O
synergy in vitro [8]: Synergy

CCN(CC)CCCC(C)Nc1ccnc2cc(Cl)ccc12 (stereo not shown) [Chloroquine]
IC50 ([1]; 48 h, read-out: IC 50 when cultured with P Falciparum, strain D6 (chloroquine and pyrimethamine susceptible), 48 h): 0.0038 µg/mL (≈ 0.0119 µM) | IC50 [1, 10]: 0.0461 µg/mL (≈ 0.144 µM) | IC50 [1, 11]: 0.162 µg/mL (≈ 0.508 µM) | IC50 [1, 12]: 0.0573 µg/mL (≈ 0.179 µM) | IC50 [1, 13]: 0.0827 µg/mL (≈ 0.259 µM) | IC50 ([1]; W2, read-out: IC50 against pyrimethamine resistant P. falciparum (W2), strain W2, text value): 0.16 µg/mL (≈ 0.5 µM)

C=C/C(C)=C/[C@@]1(C)SC(=O)C(C)=C1O [thiolactomycin]
growth of T. gondii in vitro [9]: restrict the growth
